Results as given in ChEMBL document CHEMBL5370525, “Antibiotics with novel mode of action as new weapons to fight antimicrobial resistance” (Eur J Med Chem, 2023).
Converted amounts (≈) assume the structure as drawn.

Assays:
Staphylococcus aureus [1] = assay: Antibacterial activity against Staphylococcus aureus 456 infected in neutropenic BALB/c mouse model assessed as reduction in lung bacterial load at 1.56 to 400 mg/kg, sc administered every 6 hr and measured after 24 hrs by CLSI-based assay (reference value: 5.6 to 6.3 log10 CFU); assay type: functional; settings: dose 1.56-400 mg/kg, pooled result: one value given for 6 cell lines, strains, targets or settings
Streptococcus pneumoniae = assay: Antibacterial activity against Levofloxacin-nonsusceptible Streptococcus pneumoniae assessed as inhibition of bacterial growth by CLSI-based assay; assay type: functional
Escherichia coli = assay: Antibacterial activity against Levofloxacin-nonsusceptible Escherichia coli assessed as inhibition of bacterial growth by CLSI-based assay; assay type: functional
Staphylococcus aureus [2] = assay: Antibacterial activity against levofloxacin-resistant Staphylococcus aureus assessed as inhibition of bacterial growth by CLSI-based assay; assay type: functional
Clostridioides difficile [3] = assay: Antibacterial activity against Clostridium difficile clinical isolates assessed as inhibition of bacterial growth; assay type: functional
[4] = Binding affinity to recombinant Clostridium difficile 630 DNA polymerase IIIC expressed in Escherichia coli Rosetta DE3pLysS cells assessed as inhibition constant incubated for 20 mins; set-up: species or system Clostridioides difficile 630
Clostridioides difficile [5] = assay: Antibacterial activity against Clostridium difficile clinical isolates assessed as inhibition of bacterial growth incubated for 48 hrs by CLSI-based assay; assay type: functional
[6] = Drug absorption in Syrian hamster infected with Clostridioides difficile at 75 mg/kg, po by LC-MS analysis; assay type: ADME, organism-based, Mesocricetus auratus; settings: in vivo, read-out: Drug absorption
Staphylococcus aureus [7] = assay: Antibacterial activity against Staphylococcus aureus assessed as inhibition of bacterial growth; assay type: functional
Clostridioides difficile [8] = assay: Antibacterial activity against Clostridium difficile clinical isolates assessed as inhibition of bacterial growth incubated for 44 hrs by CLSI-based broth microdilution assay; assay type: functional
Chlamydia trachomatis = assay: Antibacterial activity against Chlamydia trachomatis assessed as inhibition of bacterial growth; assay type: functional
Neisseria gonorrhoeae = assay: Antibacterial activity against Neisseria gonorrhoeae ATCC 49226 assessed as inhibition of bacterial growth by agar dilution method; assay type: functional
Mycoplasma genitalium = assay: Antibacterial activity against Mycoplasma genitalium assessed as inhibition of bacterial growth; assay type: functional; settings: Mycoplasmoides genitalium

Compound: O=c1ccc2ncc(=O)n3c2n1C[C@H]3CN1CCC(NCc2cc3c(cn2)OCCC3)CC1 [GEPOTIDACIN]
- Activity (Staphylococcus aureus [1]): 1.4 log10CFU
- MIC90 (Streptococcus pneumoniae): 0.5 µg/mL (≈ 1.11 µM)
- MIC90 (Escherichia coli): 0.5 µg/mL (≈ 1.11 µM)
- MIC90 (Staphylococcus aureus [2]): 0.5 µg/mL (≈ 1.11 µM)

Compound: O=c1[nH]c(NCc2ccc(Cl)c(Cl)c2)nc2ncn(CCN3CCOCC3)c12 [IBEZAPOLSTAT]
- MIC (Clostridioides difficile [3]): 1 µg/mL (≈ 2.36 µM)
- Ki [4]: 325 nM
- MIC50 (Clostridioides difficile [5]): 2 µg/mL (≈ 4.72 µM)
- Fa [6]: 5%

Compound: Cc1ncc([N+](=O)[O-])n1CCO [METRONIDAZOLE]
- MIC (Clostridioides difficile [3]): 0.15 µg/mL (≈ 0.876 µM)
- MIC50 (Clostridioides difficile [5]): 1 µg/mL (≈ 5.84 µM)

Compound: Cn1cc(NC(=O)c2cc(NC(=O)c3ccc(/C=C/c4cnc5ccccc5c4)cc3)cn2C)cc1C(=O)NCCN1CCOCC1 [MGB-BP-3]
- MIC80 (Staphylococcus aureus [7]): < 0.2 µM

Compound: CN[C@H](CC(C)C)C(=O)N[C@H]1C(=O)N[C@@H](CC(N)=O)C(=O)N[C@H]2C(=O)N[C@H]3C(=O)N[C@H](C(=O)N[C@H](C(=O)O)c4cc(O)cc(O)c4-c4cc3ccc4O)[C@H](O)c3ccc(c(Cl)c3)Oc3cc2cc(c3O[C@@H]2O[C@H](CO)[C@@H](O)[C@H](O)[C@H]2O[C@H]2C[C@](C)(N)[C@H](O)[C@H](C)O2)Oc2ccc(cc2Cl)[C@H]1O [VANCOMYCIN]
- MIC (Clostridioides difficile [3]): 0.25 µg/mL (≈ 0.173 µM)
- MIC (Clostridioides difficile [8]): 0.25 µg/mL (≈ 0.173 µM)
- MIC50 (Clostridioides difficile [5]): 1 µg/mL (≈ 0.69 µM)

Compound: C[C@@H]1CN2c3c(cc4c(N5C(=O)OC[C@@H]5C)noc4c3F)CC3(C(=O)NC(=O)NC3=O)[C@H]2[C@H](C)O1 [ZOLIFLODACIN]
- MIC (Chlamydia trachomatis): 0.5 µg/mL (≈ 1.03 µM)
- MIC90 (Neisseria gonorrhoeae): 0.125 µg/mL (≈ 0.256 µM)
- MIC (Mycoplasma genitalium): < 1 µg/mL
